Assay results from US20210023159A1, “METHOD FOR PROMOTING GROWTH OF AKKERMANSIA MUCINIPHILA USING MUSA FERMENTS” (TCI CO., LTD., priority 2019, published 2021).

System: Akkermansia muciniphila BCRC 81048 strain
Test: Prebiotic test for A. muciniphila (single candidate prebiotics, plate count)
Format: cell-based
Conditions: 1% (w/w) candidate prebiotic in BHI medium, 48 h anaerobic incubation at 37° C.; control group = 100%
From the text: The Akkermansia muciniphila used in the Examples described herein is the Akkermansia muciniphila BCRC 81048 strain purchased from BCRC at the Food Industry Research and Development Institute (also deposited under ATCC BAA-835). For subsequent use in the prebiotic test, the A. muciniphila strain, after thawed and activation, was inoculated at 3% and pre-cultured in BHI medium (15 g BD Difco Brain Heart Infusion broth (Thermo Fischer Scientific) dissolved in 1 L deionized water at a pH value of about 7.0) at 37° C. under an anaerobic condition (10% carbon dioxide, 10% hydrogen, and 80% nitrogen) for 48 hours.
In order to identify the nutrients beneficial to the growth of A. muciniphila, pre-cultured A. muciniphila was inoculated at 3% in BHI medium containing 1% (w/w) of the candidate prebiotics and incubated at 37° C. under anaerobic conditions for 48 hours. The bacterial culture was then spread on BHI agar plates and incubated for 72 hours for bacterial counting. The candidate prebiotic was selected from xylooligosaccharides, isomaltooligosaccharides, lactitol, inulin, fructooligosaccharides, and a banana ferment. For comparison, A. muciniphila was alternatively incubated in BHI medium without candidate prebiotics (control group).

| Compound | relative bacterial count of A. muciniphila |
| --- | --- |
| OC[C@@H](O)[C@@H](O[C@@H]1O[C@H](CO)[C@H](O)[C@H](O)[C@H]1O)[C@H](O)[C@@H](O)CO [lactitol] | ~258% |
| inulin | about 110% |
